# Assay results published in paper PMC6905855, “Agonist-specific voltage-dependent gating of lysosomal two-pore Na^+ channels” (eLife, 2019).
# Where “and” joins values, the source holds several entries; their conditions need not be identical. Equal values may be shown once. Entries after “also recorded” stand apart in the source; their conditions may differ.
# Experiments:
# [1] = test system: T1, hTPC1^R540I; test: Whole-endolysosome recordings of ITPC1-R540I; format: biochemical, human
# T1 construct: expressed in transfected cells; host or cells: Cos1
# [2] = target: T2, hTPC1 (Homo sapiens, UniProt Q9ULQ1); test: Whole-endolysosome recordings of ITPC1; format: biochemical
# T2 construct: expressed in transfected cells; host or cells: Cos1
# Description: It was therefore of interest to explore whether TCAs/LyNa-VAs could also act on TPC1. To investigate this, we used two different voltage paradigms. […] Second, we used a tail current paradigm to measure the amplitude of the peak inward current at −120 mV following prolonged steps to various potentials (Figure 4E).
# Figure 4. […] HP = 0 mV. […] Dotted lines in A indicate where the currents were measured. […] Data are presented as Mean ± S.E.M (n = 3 patches). […] (G) Normalized I-V plots of basal voltage-dependent currents in WT TPC1- and TPC1^R540I-transfected cells. […] Figure 4—source data 1. […] Figure 4—figure supplement 1. […] (A) A voltage protocol that elicited ITPC1 tail currents as shown in Figure 4E (from −140 to 100 mV with a ∆V = 20 mV, 1 s with a 10 s inter-step interval). Arrows indicate where tail currents were measured. (B) A voltage protocol that elicited ITPC1 tail currents as shown in C. […] HP = 0 mV. […] (A) Basal whole-endolysosome ITPC1 (left) or ITPC1-R540I (right) was elicited by voltage steps (−140 to +100 mV with ΔV = 20 mV) in the absence of PI(3,5)P2 in TPC1-transfected Cos1 cells ([She et al., 2019]). Tail currents were elicited at −120 mV. (B) The effects of PI(3,5)P2 (0.3 µM) on ITPC1 (left) and ITPC1-R540I (right) step currents. […] A preconditioning voltage (+80 mV, 0.1 s) was applied before voltage steps starting from −140 to 100 mV (0.5 s, ∆V = 20 mV).
# (§1) All TPC1 and TPC2 mutants were generated with a site-directed mutagenesis kit (Qiagen) using EGFP- human TPC1 and TPC2 as the templates. All constructs were confirmed by DNA sequencing.
# (§2) Whole-endolysosome recordings were performed on manually isolated enlarged endolysosomes ([Wang et al., 2012]). In brief, a patch pipette was pressed against a cell and quickly pulled away to slice the cell membrane. Enlarged endolysosomes were released into a dish and identified by monitoring EGFP-TPC1/2 or the mCherry-TPC1/2 fluorescence. After formation of a gigaseal between the patch pipette and the enlarged endolysosome, capacitance transients were compensated. Voltage steps of several hundred mVs with millisecond duration were then applied to break into the vacuolar membrane. The whole-endolysosome configuration was verified by the re-appearance of capacitance transients after break-in.
# (§3) Data were collected using an Axopatch 200A patch clamp amplifier, Digidata 1440, and pClamp 10.2 software (Axon Instruments). Whole-endolysosome currents were digitized at 10 kHz and filtered at 2 kHz. All experiments were conducted at room temperature (21–23°C), and all recordings were analyzed with pClamp 10.2, and Origin 8.0 (OriginLab, Northampton, MA). The permeability to cations (relative to PNa) was estimated based on following equations ([Lewis, 1979]) and Erev measurement under bi-ionic conditions:(1) PX/PNa=γNa/γX{[Na^+]Luminal/[X^+]Cytoplasmic}{exp([…])} (2) PCa/PNa=γNa/γCa{[Na^+]Cytoplasmic/[4[Ca^2+]Luminal}{exp(ErevF/RT)}{1+exp(ErevF/RT)} where R, T, F, Erev, and γ are, respectively, the gas constant, absolute temperature, Faraday constant, reversal potential, and activity coefficient. The liquid junction potentials were measured and corrected as described ([Neher, 1992]).
# [3] = target: T3, hTPC2 (Homo sapiens, UniProt Q8NHX9); test: Whole-endolysosome recordings of ITPC2; format: biochemical; conditions: for inactivation of ITPC2, I500ms / I10ms: @-120mV; for PX / PNa, Ca2+ / PX / PNa, K+ / PX / PNa, Na+: TPC2 WT, agonist-activated ITPC2
# T3 construct: expressed in transfected cells; host or cells: Cos1 and HEK293
# T3 sequence (Q8NHX9 whole entry): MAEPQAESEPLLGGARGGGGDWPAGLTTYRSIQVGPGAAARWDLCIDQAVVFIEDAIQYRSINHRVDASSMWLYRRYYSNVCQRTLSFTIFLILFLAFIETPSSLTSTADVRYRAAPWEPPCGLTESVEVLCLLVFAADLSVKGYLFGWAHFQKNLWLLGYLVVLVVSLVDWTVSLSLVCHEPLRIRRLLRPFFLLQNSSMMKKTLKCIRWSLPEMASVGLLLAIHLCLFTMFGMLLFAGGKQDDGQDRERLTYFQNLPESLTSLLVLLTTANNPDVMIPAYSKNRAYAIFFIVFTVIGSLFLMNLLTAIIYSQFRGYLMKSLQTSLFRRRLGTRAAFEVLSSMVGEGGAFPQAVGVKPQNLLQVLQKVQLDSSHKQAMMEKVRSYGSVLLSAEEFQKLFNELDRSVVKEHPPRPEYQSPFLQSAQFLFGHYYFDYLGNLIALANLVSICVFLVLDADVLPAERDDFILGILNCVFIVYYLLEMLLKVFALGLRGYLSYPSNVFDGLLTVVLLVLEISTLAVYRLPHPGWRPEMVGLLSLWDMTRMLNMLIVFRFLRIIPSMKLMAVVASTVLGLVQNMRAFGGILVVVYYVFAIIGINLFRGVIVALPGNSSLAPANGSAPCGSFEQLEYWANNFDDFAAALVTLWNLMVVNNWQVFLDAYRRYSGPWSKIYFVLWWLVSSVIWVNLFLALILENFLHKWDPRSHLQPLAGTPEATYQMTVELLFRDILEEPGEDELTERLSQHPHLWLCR
# [4] = test system: T4, TPC2^N653G; test: Whole-endolysosome recordings of ITPC2-N653G; format: biochemical, human; conditions: TPC2 N653G, agonist-activated current
# T4 construct: expressed in transfected cells
# [5] = test system: TPC1/2 DKO HAP1 cells; test: Whole-endolysosome recordings in TPC1/2 DKO HAP1 cells; format: biochemical, human
# Excerpt: TCAs, with a general structure of an aromatic greasy core and an aliphatic chain containing a terminal amine, are lysosomotropic compounds that are known to be highly accumulating in the lysosomes due to proton trapping ([Beckmann et al., 2014]). We next tested the effects of LyNa-VAs in hTPC2-transfected Cos1 and HEK293 cells using whole-endolyosome patch-clamp.
# Data are presented as Mean ± S.E.M (n = 3 patches). […] For panels B, D and F, individual data and Mean ± S.E.M are presented. *, p<0.05; **, p<0.01; ***, p<0.001; N.S., no significance. Figure 3—source data 1. […] Figure 3—figure supplement 1. […] Both individual data points and Mean ± S.E.M are presented (n ≥ 3 patches; also see individual data in Figure 3—figure supplement 1—source data 1). Figure 3—figure supplement 1—source data 1.
# TPC1 and TPC2 CRISPR KO cells were generated in HAP1 cells using the CRISPR/Cas9 system. The TPC1 sequence (5'cttgcagtacttcagcaccc3', TPC1-sgRNA) and TPC2 sequence (5'ccccagcgtcgggctgctgc3', TPC2-sgRNA) were targeted with pSpCas9 (BB)−2A-puro vector (Addgene). HAP1 cells were co-transfected with TPC1 and TPC2-sgRNA expressing vector in the presence of Lipofectamine 2000 (In vitrogen) and selected with 2 μg/ml puromycin for 48 hr. The remaining cells were trypsinized and seeded into 96-well plate after a limiting dilution. When single cell clones were established, their genomic DNAs were extracted and amplified with following primers: TPC1-fw: 5’atggcccagacatgtgactc3’, TPC1-re: 5’ tgcctgtctccatcctctca3’; TPC2-fw: 5’tgagctgagcatgaggcaag3’, TPC2-re: 5’ aaaggacaagtggccctgag3’. The PCR amplicons were then sequenced to confirm the intended genetic disruption.
# as §2
# as §3, with “coefficient.” for “coefficient. The liquid junction potentials were measured and corrected as described ([Neher, 1992]).”
# [6] = test system: surface-expressing mutant TRPML1 channels (TRPML1^4A); test: Whole-cell recordings of ITRPML1-4A; format: cell-based; conditions: TRPML1-4A wc; individual cells
# [7] = target: T5, surface-expressing mutant TPC2 channel (TPC2^LL/AA) in HEK293 cells (Homo sapiens, UniProt Q8NHX9, L11A/L12A); test: Whole-cell recordings of ITPC2-LL/AA; format: cell-based; conditions: for current density: whole cell recordings, individual recordings
# T5 construct: expressed in transfected cells; host or cells: HEK293
# T5 sequence (Q8NHX9 whole entry L11A/L12A): as the sequence (Q8NHX9 whole entry) above, with L11A, L12A counted along it
# Excerpt: We therefore characterized the responses of TPC2 channels to TCAs in detail using electrophysiological methods. We first performed whole-cell recordings in HEK293 cells that were transfected with surface-expressed TPC2 mutant channels (TPC2-L^11L^12-AA; abbreviated as TPC2^LL/AA hereafter).
# as §1
# Cells were transfected with Lipofectamine 2000 (Invitrogen). After culture media were refreshed 18–24 hr post-transfection, cells were used for the electrophysiological assays 24–36 hr post-transfection.
# All bath solutions were applied via a perfusion system that allowed complete solution exchange within a few seconds. […] Whole-cell currents were digitized at 10 kHz and filtered at 2 kHz.
# [8] = PI(3,5)P2 0.3 µM, LyNa-VA1.2 100 µM, LyNA1 300 µM, individual tests, listed as pip2
compound,measurement,setting,value
"PI(3,5)P2",effect on ITPC1-R540I (in words),[1],large currents at all potentials
same,effect on whole-endolysosome ITPC1 (in words),[2],large enhancement at negative potentials
same,voltage dependence of TPC2 activation (in words),[3],voltage independent; also recorded: no apparent voltage-dependent activation
same,"inactivation of ITPC2, I500ms / I10ms",[3]; [8],1.002 and 0.9763 and 0.9931 and 0.9868
same,"inactivation of ITPC2, I500ms / I10ms",[3]; mean,0.9895
same,"Rectification index of ITPC2, I+80mV/I-80mV",[3]; [8],0.8422 and 1.096 and 1.053 and 1.001
same,"Rectification index of ITPC2, I+80mV/I-80mV","[3]; PI(3,5)P2 0.3 µM, LyNa-VA1.2 100 µM, LyNA1 300 µM, mean",1.00 ± 0.06
same,"Rectification index of ITPC2, I+80mV/I-80mV","[3]; PI(3,5)P2 0.3 µM, LyNa-VA1.2 100 µM, LyNA1 300 µM, mean, listed as pip2",0.9981
same,"PX / PNa, Ca2+",[3]; individual,0.016 and 0.034
same,"PX / PNa, K+",[3]; individual,0.02921 and 0.09237 and 0.08877 and 0.01887
same,"PX / PNa, Na+",[3]; individual,0.9921 and 1.104 and 1
same,"PX / PNa, Ca2+",[3]; mean,0.022
same,"PX / PNa, K+",[3]; mean,0.05731
same,"PX / PNa, Na+",[3]; mean,1.032
same,activation of whole-endolysosome ITPC2 (in words),"[3]; bath application, symmetric Na^+",activated a large whole-endolysosome ITPC2 with linear I-V
same,I@500ms/I@10ms (current decline at steady state),"[3]; voltage-step protocols, at all potentials",~1.0
same,"PX / PNa, K+",[4]; individual,0.5092 and 0.6027 and 0.4961 and 0.3927
same,"PX / PNa, K+",[4]; mean,0.5002
ML-SA1,activation of ITRPML1 in TPC1/2 DKO cells (in words),[5],readily activated ITRPML1
same,"current, whole-cell ITRPML1-4A",[6],4274.3 pA and 5928.6 pA
"CN(C)CCCN1c2ccccc2Sc2ccc(Cl)cc21 [LyNa-VA2.1, Chlorpromazine]",effect on whole-endolysosome ITPC1 (in words),[2],inhibited ITPC1
same,"Dose-dependent inhibition of TPC1 (ITPC1, value at 0 µM = 1)","[2]; 3 µM, individual patches",0.9084 and 0.9958 and 1.027
same,"Dose-dependent inhibition of TPC1 (ITPC1, value at 0 µM = 1)","[2]; 3 µM, mean",0.9772
same,"Dose-dependent inhibition of TPC1 (ITPC1, value at 0 µM = 1)","[2]; 10 µM, individual patches",0.8547 and 1.003 and 0.8763
same,"Dose-dependent inhibition of TPC1 (ITPC1, value at 0 µM = 1)","[2]; 10 µM, mean",0.9114
same,"Dose-dependent inhibition of TPC1 (ITPC1, value at 0 µM = 1)","[2]; 30 µM, individual patches",0.8617 and 0.806 and 0.5194
same,"Dose-dependent inhibition of TPC1 (ITPC1, value at 0 µM = 1)","[2]; 30 µM, mean",0.729
same,"Dose-dependent inhibition of TPC1 (ITPC1, value at 0 µM = 1)","[2]; 100 µM, individual patches",0.4994 and 0.4103 and 0.291
same,"Dose-dependent inhibition of TPC1 (ITPC1, value at 0 µM = 1)","[2]; 100 µM, mean",0.4003
same,"Dose-dependent inhibition of TPC1 (ITPC1, value at 0 µM = 1)","[2]; 300 µM, individual patches",0.197 and 0.08086 and 0.1214
same,"Dose-dependent inhibition of TPC1 (ITPC1, value at 0 µM = 1)","[2]; 300 µM, mean",0.1331
same,IC50,"[2]; whole-endolysosome, n = 3 patches, read-out: IC50, inhibition of TPC1",77 ± 2 µM
same,ITPC2,[3]; whole endolysosome recordings with 100 µM of LyNa-VAs at −120 mV,1101 ± 508 pA
same,activation of whole-cell ITPC2-LL/AA (in words),"[7]; bath application, symmetric Na^+, 100 µM where stated",ITPC2 was evoked
same,current density,[7]; 5 µM,7.8 pA/pF
same,current density,[7]; 10 µM,11.2294 pA/pF and 9.959 pA/pF and 11.6261 pA/pF and 6.052 pA/pF
same,current density,[7]; 20 µM,17.6973 pA/pF and 20.0248 pA/pF and 34.5739 pA/pF and 9.104 pA/pF
same,current density,[7]; 50 µM,54.3211 pA/pF and 69.6612 pA/pF and 69.313 pA/pF and 27.4087 pA/pF
same,current density,[7]; 100 µM,137.55 pA/pF and 140.785 pA/pF and 150.409 pA/pF and 87.5478 pA/pF
same,current density,[7]; 200 µM,152.165 pA/pF and 168.074 pA/pF and 117.748 pA/pF
same,EC50,"[7]; whole-cell recordings at −140 mV, TPC2^LL/AA-transfected HEK293 cells, read-out: EC50",60 ± 2 µM
